Experimental data reported in US6962920B2, “Pyrimidine derivatives and methods of making and using these derivatives” (Duquesne University of the Holy Ghost, priority 1992, dated 2005).
Where two headings read alike, the source gives them in different places.

What was measured:
[1] = tested on: KM12; experiment: NCI in vitro anti-cancer activity, Colon Cancer; assay type: cell-based
[2] = tested on: MDA-MB-231/ATCC; experiment: NCI in vitro anti-cancer activity, Breast Cancer; assay type: cell-based
[3] = tested on: LOX IMVI; experiment: NCI in vitro anti-cancer activity, Melanoma; assay type: cell-based
[4] = tested on: 786-0; experiment: NCI in vitro anti-cancer activity, Renal Cancer; assay type: cell-based
[5] = tested on: COLO 205; experiment: NCI in vitro anti-cancer activity, Colon Cancer; assay type: cell-based
[6] = tested on: M14; experiment: NCI in vitro anti-cancer activity, Melanoma; assay type: cell-based
[7] = tested on: SK-MEL-2; experiment: NCI in vitro anti-cancer activity, Melanoma; assay type: cell-based
[8] = tested on: OVCAR-5; experiment: NCI in vitro anti-cancer activity, Ovarian Cancer; assay type: cell-based
[9] = tested on: OVCAR-3; experiment: NCI in vitro anti-cancer activity, Ovarian Cancer; assay type: cell-based
[10] = tested on: A253; experiment: Growth inhibition of A253 human squamous carcinoma cell line; assay type: cell-based; details: Table 9, continuous (120 hours) exposure
Procedure: The performance of these compounds was evaluated against MTX.

[11] = tested on: SK-OV-3; experiment: NCI in vitro anti-cancer activity, Ovarian Cancer; assay type: cell-based
[12] = tested on: HCT-116; experiment: NCI in vitro anti-cancer activity, Colon Cancer; assay type: cell-based
[13] = tested on: NCI-H522; assay type: cell-based
[14] = tested on: A549/ATCC; assay type: cell-based
[15] = tested on: SNB-75; experiment: NCI in vitro anti-cancer activity, CNS Cancer; assay type: cell-based
[16] = tested on: MDA-MB-435; experiment: NCI in vitro anti-cancer activity, Breast Cancer; assay type: cell-based
[17] = tested on: MALME-3M; experiment: NCI in vitro anti-cancer activity, Melanoma; assay type: cell-based
[18] = tested on: SF-268; experiment: NCI in vitro anti-cancer activity, CNS Cancer; assay type: cell-based
[19] = tested on: MCF7; experiment: NCI in vitro anti-cancer activity, Breast Cancer; assay type: cell-based
[20] = tested on: SK-MEL-28; experiment: NCI in vitro anti-cancer activity, Melanoma; assay type: cell-based
[21] = tested on: TK-10; experiment: NCI in vitro anti-cancer activity, Renal Cancer; assay type: cell-based
[22] = tested on: PC-3; experiment: NCI in vitro anti-cancer activity, Prostate Cancer; assay type: cell-based
[23] = tested on: HT29; experiment: NCI in vitro anti-cancer activity, Colon Cancer; assay type: cell-based
[24] = target: T1, Pc DHFR (Pneumocystis carinii, UniProt P16184); experiment: biochemical
T1 sequence (P16184 1-206): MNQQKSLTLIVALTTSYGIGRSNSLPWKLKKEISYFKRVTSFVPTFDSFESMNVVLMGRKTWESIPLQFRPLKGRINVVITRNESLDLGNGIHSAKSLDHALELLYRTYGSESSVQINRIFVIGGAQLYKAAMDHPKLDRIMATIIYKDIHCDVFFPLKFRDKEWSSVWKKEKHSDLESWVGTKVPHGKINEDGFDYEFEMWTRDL

[25] = tested on: R2 cells; experiment: Growth inhibition of R2 subline (MTX-transport deficient); assay type: cell-based; details: Homo sapiens; Table 8; continuous (0-120 hours) exposure; read-out: Growth inhibition EC50, R2
[26] = tested on: FaDu; experiment: Growth inhibition of FaDu human squamous carcinoma cell line; assay type: cell-based; details: Homo sapiens, FaDu; Table 9; continuous (120 hours) exposure; read-out: Growth inhibition EC50, FaDu
[27] = tested on: CCRF-CEM; experiment: NCI in vitro anti-cancer activity, Leukemia; assay type: cell-based; details: Table 29, Leukemia
[28] = tested on: RPMI-8226; experiment: NCI in vitro anti-cancer activity, Leukemia; assay type: cell-based; details: Table 29, Leukemia
[29] = tested on: MOLT-4; experiment: NCI in vitro anti-cancer activity, Leukemia; assay type: cell-based; details: Table 29, Leukemia
[30] = tested on: SK-MEL-5; experiment: NCI in vitro anti-cancer activity, Melanoma; assay type: cell-based; details: Table 29, Melanoma
[31] = tested on: UACC-257; experiment: NCI in vitro anti-cancer activity, Melanoma; assay type: cell-based; details: Table 29, Melanoma
[32] = tested on: NCI/ADR-RES; experiment: NCI in vitro anti-cancer activity, breast cancer; details: Table 29, Breast Cancer, NCI/ADRRES
Text: (§1) The compounds identified below were further tested for their in vitro anti-cancer activity by the National Cancer Institute.

[33] = tested on: K-562; experiment: NCI in vitro anti-cancer activity; details: Table 29, Leukemia
Text: as §1

[34] = Table 29, Colon Cancer, COLO 205
[35] = Table 29, Ovarian Cancer, OVCAR-5
[36] = Table 29, Ovarian Cancer, OVCAR-3
[37] = Table 29, Ovarian Cancer, SK-OV-3
[38] = Table 29, Non-Small Cell Lung Cancer, NCI-H522
[39] = Table 29, Non-Small Cell Lung Cancer
[40] = Table 29, Prostate Cancer, PC-3

SMILES: Nc1nc(N)c2c(CNc3ccc(C(=O)N[C@@H](CCC(=O)O)C(=O)O)cc3)c[nH]c2n1 [Compound 9]
- GI50 ([1]; Homo sapiens, KM12, Colon Cancer): 33.2 µM
- GI50 ([2]; Homo sapiens, Breast Cancer): > 100 µM
- GI50 ([3]; Homo sapiens, Melanoma): < 0.01 µM
- GI50 ([4]; Homo sapiens, 786-0, Renal Cancer): < 0.01 µM
- GI50 ([5]; Homo sapiens, COLO 205, Colon Cancer): > 100 µM
- GI50 ([6]; Homo sapiens, M14, Melanoma): < 0.01 µM
- GI50 ([7]; Homo sapiens, SK-MEL-2, Melanoma): > 100 µM
- GI50 ([8]; Homo sapiens, OVCAR-5, Ovarian Cancer): > 100 µM
- GI50 ([9]; Homo sapiens, OVCAR-3, Ovarian Cancer): > 100 µM
- EC50 [10]: 0.046 ± 0.004 µM
- GI50 ([11]; Homo sapiens, SK-OV-3, Ovarian Cancer): > 100 µM
- GI50 ([12]; Homo sapiens): < 0.01 µM
- GI50 ([13]; Homo sapiens, NCI-H522, Non-Small Cell Lung Cancer): > 100 µM
- GI50 ([14]; Homo sapiens, Non-Small Cell Lung Cancer): < 0.01 µM
- GI50 ([15]; Homo sapiens, SNB-75, CNS Cancer): < 0.01 µM
- GI50 ([16]; Homo sapiens): 0.687 µM
- GI50 ([17]; Homo sapiens, Melanoma): < 0.01 µM
- GI50 ([18]; Homo sapiens, SF-268, CNS Cancer): < 0.01 µM
- GI50 ([19]; Homo sapiens, MCF7, Breast Cancer): < 0.01 µM
- GI50 ([20]; Homo sapiens, SK-MEL-28, Melanoma): > 100 µM
- GI50 ([21]; Homo sapiens, TK-10, Renal Cancer): > 100 µM
- GI50 ([22]; Homo sapiens, PC-3, Prostate Cancer): > 100 µM
- GI50 ([23]; Homo sapiens, HT-29, HT29, Colon Cancer): < 0.01 µM
- IC50 [24]: 0.038 µM
- EC50 [25]: 1.65 ± 0.2 µM
- EC50 [26]: 0.022 ± 0.004 µM

SMILES: COc1ccc(CCc2cn(Cc3ccccc3)c3nc(N)nc(C)c23)cc1 [Compound 113-118]
- GI50 ([1]; Table 29, Colon Cancer, KM12): 48.4 µM
- GI50 [27]: > 100 µM
- GI50 ([2]; Table 29, Breast Cancer): < 100 µM
- GI50 ([3]; Table 29, Melanoma): 50 µM
- GI50 ([4]; Table 29, Renal Cancer, 786-0): > 100 µM
- GI50 [5, 34]: 38.2 µM
- GI50 ([6]; Table 29, Melanoma, M14): 93.6 µM
- GI50 ([7]; Table 29, Melanoma, SK-MEL-2): > 100 µM
- GI50 [8, 35]: > 100 µM
- GI50 [9, 36]: > 100 µM
- GI50 [11, 37]: > 100 µM
- GI50 ([12]; Table 29, Colon Cancer): 48.3 µM
- GI50 [13, 38]: 29.1 µM
- GI50 [14, 39]: 99.8 µM
- GI50 ([15]; Table 29, CNS Cancer, SNB-75): > 100 µM
- GI50 [28]: > 100 µM
- GI50 ([16]; Table 29, Breast Cancer): 95.4 µM
- GI50 ([17]; Table 29, Melanoma): 19.5 µM
- GI50 ([18]; Table 29, CNS Cancer, SF-268): > 100 µM
- GI50 ([19]; Table 29, Breast Cancer, MCF7): 29.6 µM
- GI50 ([20]; Table 29, Melanoma, SK-MEL-28): > 100 µM
- GI50 ([21]; Table 29, Renal Cancer, TK-10): > 100 µM
- GI50 [22, 40]: 64 µM
- GI50 ([23]; Table 29, Colon Cancer, HT29): 48.4 µM
- % inhibition Pc DHFR ([24]; @ 31 μM): 60% @

SMILES: COc1ccccc1CCc1cn(Cc2ccccc2)c2nc(N)nc(C)c12 [Compound 113-148]
- GI50 ([1]; Table 29, Colon Cancer, KM12): 12.2 µM
- GI50 [27]: 2.97 µM
- GI50 ([2]; Table 29, Breast Cancer): 10.8 µM
- GI50 ([3]; Table 29, Melanoma): 13.7 µM
- GI50 [29]: 7.46 µM
- GI50 ([4]; Table 29, Renal Cancer, 786-0): 11.6 µM
- GI50 [5, 34]: 11.7 µM
- GI50 ([6]; Table 29, Melanoma, M14): 12 µM
- GI50 [30]: 5.8 µM
- GI50 ([7]; Table 29, Melanoma, SK-MEL-2): 13.1 µM
- GI50 [8, 35]: 10.8 µM
- GI50 [9, 36]: 14.8 µM
- GI50 [31]: 6.36 µM
- GI50 [32]: 6.75 µM
- GI50 [11, 37]: 17.3 µM
- GI50 ([12]; Table 29, Colon Cancer): 4.51 µM
- GI50 [13, 38]: 8.34 µM
- GI50 [14, 39]: 6.46 µM
- GI50 ([15]; Table 29, CNS Cancer, SNB-75): 17.6 µM
- GI50 [33]: 5.91 µM
- GI50 ([16]; Table 29, Breast Cancer): 13 µM
- GI50 ([17]; Table 29, Melanoma): 18.6 µM
- GI50 ([18]; Table 29, CNS Cancer, SF-268): 11 µM
- GI50 ([19]; Table 29, Breast Cancer, MCF7): 12.6 µM
- GI50 ([20]; Table 29, Melanoma, SK-MEL-28): 15.7 µM
- GI50 ([21]; Table 29, Renal Cancer, TK-10): 10.2 µM
- GI50 [22, 40]: 9.47 µM
- GI50 ([23]; Table 29, Colon Cancer, HT29): 4.77 µM
- % inhibition Pc DHFR ([24]; @ 85 μM): 45% @

SMILES: COc1cc(CCc2c[nH]c3nc(N)nc(C)c23)cc(OC)c1OC [Compound 113-154A]
- GI50 ([1]; Table 29, Colon Cancer, KM12): 46.5 µM
- GI50 ([2]; Table 29, Breast Cancer): 37.3 µM
- GI50 ([3]; Table 29, Melanoma): 30 µM
- GI50 [29]: 38.7 µM
- GI50 ([4]; Table 29, Renal Cancer, 786-0): 32.8 µM
- GI50 [5, 34]: 48.2 µM
- GI50 ([6]; Table 29, Melanoma, M14): 29.8 µM
- GI50 [30]: 37.3 µM
- GI50 ([7]; Table 29, Melanoma, SK-MEL-2): 98.3 µM
- GI50 [9, 36]: 74.8 µM
- GI50 [31]: 56.4 µM
- GI50 [32]: 25.9 µM
- GI50 [11, 37]: 88.8 µM
- GI50 ([12]; Table 29, Colon Cancer): 36.8 µM
- GI50 [13, 38]: 25 µM
- GI50 [14, 39]: 26.1 µM
- GI50 ([15]; Table 29, CNS Cancer, SNB-75): 27.5 µM
- GI50 [28]: 67.4 µM
- GI50 [33]: 23 µM
- GI50 ([16]; Table 29, Breast Cancer): 39.2 µM
- GI50 ([17]; Table 29, Melanoma): 47.4 µM
- GI50 ([18]; Table 29, CNS Cancer, SF-268): 39.5 µM
- GI50 ([19]; Table 29, Breast Cancer, MCF7): 27.2 µM
- GI50 ([21]; Table 29, Renal Cancer, TK-10): 58.9 µM
- GI50 [22, 40]: 22.2 µM
- GI50 ([23]; Table 29, Colon Cancer, HT29): 10 µM
- Selectivity Ratio: RL DHFR/Pc DHFR ([24]; Table 26): 0.04
- IC50 ([24]; Table 26, read-out: Inhibitory Concentrations (IC50) Pc DHFR): 55 µM
